Data taken from ChEMBL document CHEMBL4818987, “Recent advances of podophyllotoxin/epipodophyllotoxin hybrids in anticancer activity, mode of action, and structure-activity relationship: An update (2010-2020)” (Eur J Med Chem, 2020).

What was measured:
[1] = system: K562/A02; test: Potency index, ratio of etoposide GI50 to test compound GI50 for human K562/A02 cells; assay type: functional
[2] = system: K562/A02; test: Potency index, ratio of doxorubicin IC50 to test compound IC50 for human K562/A02 cells; assay type: functional
[3] = system: K562; test: Cytotoxicity against human K562 cells by SRB assay; assay type: functional, cell-based
[4] = system: K562/A02; test: Cytotoxicity against human K562/A02 cells by SRB assay; assay type: functional, cell-based
[5] = system: HeLa; test: Antiproliferative activity against human HeLa cells by MTT assay; assay type: functional, cell-based
[6] = system: K562; test: Antiproliferative activity against human K562 cells by MTT assay; assay type: functional, cell-based
[7] = system: K562/A02; test: Antiproliferative activity against human K562/A02 cells by MTT assay; assay type: functional, cell-based
[8] = system: HeLa; test: Potency index, ratio of etoposide IC50 to test compound IC50 for human HeLa cells; assay type: functional
[9] = Resistance index, ratio of IC50 for human K562/AO2 cells to IC50 for human K562 cells; assay type: functional
[10] = system: K562; test: Potency index, ratio of etoposide IC50 to test compound IC50 for human K562 cells; assay type: functional
[11] = system: BGC-823; test: Antiproliferative activity against human BGC-823 cells incubated for 72 hrs by MTT assay; assay type: functional, cell-based; conditions: BGC-823, 72 h
[12] = system: MKN-45; test: Potency index, ratio of etoposide IC50 to test compound IC50 for antiproliferative activity against human MKN-45 cells; assay type: functional
[13] = system: BGC-823; test: Potency index, ratio of etoposide IC50 to test compound IC50 for antiproliferative activity against human BGC-823 cells; assay type: functional
[14] = system: MKN-45; test: Antiproliferative activity against human MKN-45 cells incubated for 72 hrs by MTT assay; assay type: functional, cell-based; conditions: Homo sapiens, MKN-45, 72 h
[15] = system: SMMC-7721; test: Antiproliferative activity against human SMMC-7721 cells incubated for 48 hrs by MTT assay; assay type: functional, cell-based; conditions: SMMC-7721, 48 h
[16] = system: CCRF S-180; test: Antitumor activity against mouse S180 cells implanted in ICR mouse assessed as reduction in tumor weight at 20 mg/kg, ip administered everyday for 7 days relative to control; assay type: functional; set-up: scale not given: the % may be the effect or the level left; conditions: time 7 day
[17] = system: HL-60; test: Antiproliferative activity against human HL-60 cells incubated for 48 hrs by MTT assay; assay type: functional, cell-based; conditions: HL-60, 48 h
[18] = system: SW480; test: Antiproliferative activity against human SW480 cells incubated for 48 hrs by MTT assay; assay type: functional, cell-based; conditions: SW480, 48 h
[19] = system: A549; test: Antiproliferative activity against human A549 cells incubated for 48 hrs by MTT assay; assay type: functional, cell-based; conditions: A549, 48 h
[20] = system: MCF7; test: Antiproliferative activity against human MCF7 cells incubated for 48 hrs by MTT assay; assay type: functional, cell-based; conditions: MCF7, 48 h
[21] = system: L02; test: Cytotoxicity against human L02 cells incubated for 24 hrs by CCK8 assay; assay type: functional, cell-based; conditions: L02, 24 h
[22] = system: HeLa; test: Cytotoxicity against human HeLa cells incubated for 24 hrs by CCK8 assay; assay type: functional, cell-based
[23] = Cytotoxicity against PBMC (unknown origin) incubated for 24 hrs by CCK8 assay
[24] = system: A549; test: Cytotoxicity against human A549 cells incubated for 24 hrs by CCK8 assay; assay type: functional, cell-based; conditions: A549, 24 h
[25] = system: HepG2; test: Cytotoxicity against human HepG2 cells incubated for 24 hrs by CCK8 assay; assay type: functional, cell-based; conditions: HepG2, 24 h
[26] = system: MCF7; test: Cytotoxicity against human MCF7 cells incubated for 24 hrs by CCK8 assay; assay type: functional, cell-based; conditions: MCF7, 24 h

COc1ccc2[nH]cc(C(=O)C(=O)N[C@@H]3c4cc5c(cc4[C@@H](c4cc(OC)c(OC)c(OC)c4)[C@H]4C(=O)OC[C@@H]43)OCO5)c2c1
Ratio IC50 [1]: 4.2 | Ratio IC50 [2]: 4.2 | GI50 [3]: 1020 nM | GI50 [4]: 3340 nM

COc1cc([C@@H]2c3cc4c(cc3[C@@H](NCc3cc5ccccc5[nH]3)[C@H]3COC(=O)[C@H]23)OCO4)cc(OC)c1OC
IC50 [5]: 100 nM | Ratio IC50 [1]: 1.7 | IC50 [6]: 100 nM | IC50 [7]: 2230 nM | Ratio IC50 [8]: 1.7 | Ratio IC50 [9]: 1.97 | Ratio IC50 [10]: 1.7

COc1cc([C@@H]2c3cc4c(cc3[C@H](OC(=O)/C=C(C)/C=C/C=C(C)/C=C/C3=C(C)CCCC3(C)C)[C@H]3COC(=O)[C@H]23)OCO4)cc(OC)c1OC
IC50 [11]: 202 nM | Ratio IC50 [12]: 6.8 | Ratio IC50 [13]: 6.8 | IC50 [14]: 419 nM

COc1cc([C@@H]2c3cc4c(cc3[C@@H](OC(=O)CCCC[C@@H]3SC[C@@H]5NC(=O)N[C@@H]53)[C@H]3COC(=O)[C@H]23)OCO4)cc(OC)c1O
IC50 [15]: 130 nM | Activity [16]: 37.7% | IC50 [17]: 130 nM | IC50 [18]: 130 nM | IC50 [19]: 130 nM | IC50 [20]: 130 nM

COc1cc([C@@H]2c3cc4c(cc3[C@H](OC(=O)c3c[nH]c5ccccc35)[C@H]3COC(=O)[C@H]23)OCO4)cc(OC)c1OC
IC50 [21]: 88900 nM | IC50 [22]: 1930 nM | IC50 [23]: 75600 nM | IC50 [24]: 1930 nM | IC50 [25]: 1930 nM | IC50 [26]: 1930 nM
